{"source": "paper PMC3816012", "about": "(Structure (London, England : 1993), 2013)", "target": "IcmR-IcmQ (Legionella pneumophila, UniProt O54635)"}
{"smiles": "NC(=O)c1ccc[n+]([C@@H]2O[C@H](COP(=O)(O)OP(=O)(O)OC[C@H]3O[C@@H](n4cnc5c(N)ncnc54)[C@H](O)[C@@H]3O)[C@@H](O)[C@H]2O)c1", "note": "[NAD+]", "values": [{"measurement": "filter binding assay, 32P-labelled NAD+", "result": "A similar binding profile was observed for wild type IcmR-IcmQ complexes."}]}
